Source: US20100184751A1, “HETEROCYCLIC COMPOUNDS FOR THE TREATMENT OF TUBERCULOSIS” (priority 2007, published 2010)
Counter-ions that a name gives are not always drawn. Like-named read-outs stand apart in the source and are kept apart here.

Experiments:
[1] = General antimicrobial activity assay (whole-cell broth microdilution MIC, CLSI M7-A7); assay type: cell-based
[2] = system: Mycobacterium tuberculosis H37Rv; assay: Mycobacterium tuberculosis H37Rv inhibition assay (resazurin MIC); assay type: cell-based; details: ATCC 25618 / H37Rv, H37Rv strain (ATCC25618), Middlebrook 7H9, 37° C., six days, resazurin fluorescence after 48 hours, read-out: MIC value

Structure (SMILES): O=c1c(Cl)cc2ncc(F)c3c2n1CC3(O)CN1CCC(NCc2cc3c(cn2)OCCO3)CC1 (racemic) [Example 24, (4R/S)-8-Chloro-4-({4-[(2,3-dihydro[1,4]dioxino[2,3-c]pyridin-7-ylmethyl)amino]-1-piperidinyl}methyl)-3-fluoro-4-hydroxy-4,5-dihydro-7H-pyrrolo[3,2,1-de]-1,5-naphthyridin-7-one Dihydrochloride]
- MIC [1]: < 4 µg/mL

Structure (SMILES): O=c1[nH]c(CNC2CCN(C[C@]3(O)Cn4c(=O)ccc5ncc(F)c3c54)CC2)nc2ccccc12 [Example 39]
- MIC [1]: < 4 µg/mL

Structure (SMILES): O=c1[nH]c2ccccc2nc1CNC1CCN(C[C@]2(O)Cn3c(=O)ccc4ncc(F)c2c43)CC1 [Example 38]
- MIC [1]: < 4 µg/mL

Structure (SMILES): CC(C)n1nnc2cc(CNC3CCN(C[C@]4(O)Cn5c(=O)ccc6ncc(F)c4c65)CC3)ccc21 [Example 47]
- MIC [1]: ≤ 8 µg/mL

Structure (SMILES): COc1cnc2ccc(=O)n3c2c1[C@](O)(CN1CCC(NCc2cc4c(cn2)OCCO4)CC1)C3 [Example 65]
- MIC [1]: ≤ 8 µg/mL

Structure (SMILES): COc1cnc2ccc(=O)n3c2c1[C@](O)(CN1CCC(NCc2cc4c(nn2)OCCO4)CC1)C3 [Example 66]
- MIC ([1]; read-out: MIC values): > 16 µg/mL

Structure (SMILES): O=c1ccc2ncc(F)c3c2n1C[C@@]3(O)CN1CCC(NCc2cnc3snnc3c2)CC1 [Example 56, (4S)-3-fluoro-4-hydroxy-4-({4-[([1,2,3]thiadiazolo[5,4-b]pyridin-6-ylmethyl)amino]-1-piperidinyl}methyl)-4,5-dihydro-7H-pyrrolo[3,2,1-de]-1,5-naphthyridin-7-one]
- MIC ([2]; 144 h): ≤ 4 µg/mL
- MIC [2]: ≤ 1.7 µg/mL

Structure (SMILES): O=c1ccc2ncc(F)c3c2n1C[C@@]3(O)CN1CCC(NCc2cc3c(cn2)OCS3)CC1 [Example 10B, (4S)-3-Fluoro-4-hydroxy-4-({4-[([1,3]oxathiolo[5,4-c]pyridin-6-ylmethyl)amino]-1-piperidinyl}methyl)-4,5-dihydro-7H-pyrrolo[3,2,1-de]-1,5-naphthyridin-7-one (E1 enantiomer series) hydrochloride]
- MIC ([2]; 144 h): ≤ 4 µg/mL
- MIC [2]: ≤ 1.7 µg/mL

Structure (SMILES): O=c1c(F)cc2ncc(F)c3c2n1C[C@@]3(O)CN1CCC(NCc2cc3c(cn2)OCCO3)CC1 [Example 20A, (4S)-4-({4-[(2,3-Dihydro[1,4]dioxino[2,3-c]pyridin-7-ylmethyl)amino]-1-piperidinyl}methyl)-3,8-difluoro-4-hydroxy-4,5-dihydro-7H-pyrrolo[3,2,1-de]-1,5-naphthyridin-7-one (E1 enantiomer series)]
- MIC ([2]; 144 h): ≤ 4 µg/mL

Structure (SMILES): O=c1ccc2ncc(F)c3c2n1C[C@@]3(O)CN1CCC(NCc2ccc3c(c2)OCCO3)CC1 [Example 3A, (4S)-4-({4-[(2,3-Dihydro-1,4-benzodioxin-6-ylmethyl)amino]-1-piperidinyl}methyl)-3-fluoro-4-hydroxy-4,5-dihydro-7H-pyrrolo[3,2,1-de]-1,5-naphthyridin-7-one (E1 Enantiomer Series) Dihydrochloride]
- MIC ([2]; 144 h): ≤ 4 µg/mL
- MIC [2]: ≤ 1.7 µg/mL

Structure (SMILES): O=c1ccc2ncc(F)c3c2n1C[C@@]3(O)CN1CCC(NCc2ccc3cccc(O)c3n2)CC1 [Example 49, (4S)-3-fluoro-4-hydroxy-4-[(4-{[(8-hydroxy-2-quinolinyl)methyl]amino}-1-piperidinyl)methyl]-4,5-dihydro-7H-pyrrolo[3,2,1-de]-1,5-naphthyridin-7-one]
- MIC ([2]; 144 h): ≤ 4 µg/mL
